According to patent publication US20230093399A1, “METHODS FOR GENERATING PLURIPOTENT STEM CELL-DERIVED BROWN FAT CELLS” (AgeX Therapeutics, Inc., priority 2013, published 2023):

Experiments:
NP110SM cells = test: Differentiation of clonal embryonic progenitor line NP110SM in HyStem beads, Illumina microarray gene expression; assay type: cell-based, human; settings: NP110SM; 10 M CL316243 together with 50 ng/ml BMP4 and 5.0 μM rosiglitazone; FIG. 15 lane 9
Protocol: (§1) Differentiation medium is high glucose DMEM (CellGro Cat. No. 15-013-CV) with Pyruvate, 1 mM (Gibco Cat. 11360), Pen:Strep 100U/ml:100 ug/ml (Gibco Cat. No. 504284), Glutamax 2 mM (Gibco Cat. No. 35050), Dexamethasone 0.1 uM (Sigma, St. Louis, Mo., Cat. No. D1756-100), L-Proline 0.35 mM (Sigma Cat. No. D49752), 2-phospho-L-Ascorbic Acid 0.17 mM (Sigma, Cat. No. 49792, Fluka), and ITS Premix (BD, Franklin Lakes, N.J., sterile Cat. No. 47743-628) with a final concentration 6.25 ug/ml insulin, 6.25 ug/ml transferrin, 6.25 ng/ml selenious acid, serum albumin 1.25 mg/ml, 5.35 ug/ml linoleic acid. In various differentiation conditions, the Differentiation medium is supplemented with various growth factors or other differentiation factors as described herein.
HyStem-C (BioTime, Inc. Alameda, Calif.) is a matrix composed of thiol-modified gelatin and thiolated hyaluronan crosslinked in vivo or in vitro with (polyethylene glycol diacrylate (PEGDA). We observed that clonal human embryonic progenitor cell lines such as those described in the present invention, could be efficiently differentiated in high-density cultures of said crosslinked collagen and hyaluronate in the following manner. HyStem-C® (BioTime, CA, USA) is reconstituted following the manufacturer's instructions. Briefly, the HyStem component (10 mg of thiol-modified hyaluronan) is dissolved in 1.0 ml of degassed deionized water for approximately 20 min to prepare a 1% w/v solution. The Gelin-S® component (10 mg of thiol-modified gelatin (BioTime)) is dissolved in 1.0 ml of degassed deionized water to prepare a 1% w/v solution, and polyethylene glycol diacrylate (10 mg of PEGDA) is dissolved in 0.5 ml of degassed deionized water to prepare a 2% w/v solution. Then, HyStem (1 ml, 1% w/v) is mixed with Gelin-S (1 ml, 1% w/v) immediately before use. Pelleted cells are resuspended in the recently prepared HyStem:Gelin-S (1:1 v/v) mix described above. Upon the addition of the PEGDA cross-linker, the cell suspension, at a final concentration of 2.0×10^7 cells/ml is aliquoted (25 μl/aliquot) into six-well plates (Corning® 3516; VWR, PA, USA) after partial gelation. Following complete gelation (20 min), Differentiation Medium is added to each well. Plates were then placed in a humidified incubator at 37° C. with ambient O2 and 10% CO2, and the cells were fed three-times weekly. At the desired time point, hydrogel constructs were either fixed and processed for immunohistochemical analysis or lysed using RLT (Qiagen, CA, USA) with 1% beta-mercaptoethanol for total RNA to analyze transcript expression using quantitative real-time PCR (qRT-PCR) and/or whole-genome microarray.
(§2) Total RNA was extracted directly from cells growing in 6-well plates or 10 cm tissue culture dishes using Qiagen RNeasy mini kits according to the manufacturer's instructions. RNA concentrations were measured using a Beckman DU530 or Nanodrop spectrophotometer and RNA quality was determined by denaturing agarose gel electrophoresis or using an Agilent 2100 bioanalyzer. Whole-genome expression analysis was carried out using Illumina Human Ref-8v3 or Human HT-12 v4 BeadArrays, and RNA levels for certain genes were confirmed by qRT-PCR. For the Illumina BeadArrays, total RNA was linearly amplified and biotin-labeled using Illumina TotalPrep kits (Life Technologies, Temecula, Calif., USA), and cRNA was quality-controlled using an Agilent 2100 Bioanalyzer. The cRNA was hybridized to Illumina BeadChips, processed, and read using a BeadStation array reader according to the manufacturer's instructions (Illumina, San Diego, Calif., USA). Values of less than 120 relative fluorescence units (RFUs) were considered as nonspecific background signal.
The line NP110SM was then exposed to differentiation in the BAT cell differentiation protocols described herein. […]

cell line E3 = test: Differentiation of clonal hEP cell line E3 in HyStem beads, Illumina microarray gene expression; assay type: cell-based, human
Protocol: as §1
(§3) The Gelin-S® component (10 mg of thiol-modified gelatin (BioTime)) is dissolved in 1.0 ml of degassed deionized water to prepare a 1% w/v solution, and polyethylene glycol diacrylate (10 mg of PEGDA) is dissolved in 0.5 ml of degassed deionized water to prepare a 2% w/v solution. Then, HyStem (1 ml, 1% w/v) is mixed with Gelin-S (1 ml, 1% w/v) immediately before use. Pelleted cells are resuspended in the recently prepared HyStem:Gelin-S (1:1 v/v) mix described above. Upon the addition of the PEGDA cross-linker, the cell suspension, at a final concentration of 2.0×10^7 cells/ml is aliquoted (25 μl/aliquot) into six-well plates (Corning® 3516; VWR, PA, USA) after partial gelation. Following complete gelation (20 min), Differentiation Medium is added to each well. Plates were then placed in a humidified incubator at 37° C. with ambient O2 and 10% CO2, and the cells were fed three-times weekly. At the desired time point, hydrogel constructs were either fixed and processed for immunohistochemical analysis or lysed using RLT (Qiagen, CA, USA) with 1% beta-mercaptoethanol for total RNA to analyze transcript expression using quantitative real-time PCR (qRT-PCR) and/or whole-genome microarray.
as §2

cell line E72 = test: Differentiation of cell line E72 in HyStem, gene expression; assay type: cell-based, human; settings: E72 passage 11; HyStem-C supplemented with 1.0 uM all-trans retinoic acid
Protocol: HyStem-C (BioTime, Inc. Alameda, Calif.) (BioTime, Alameda, Calif., USA) was reconstituted following the manufacturer's instructions. Briefly, the HyStem component (thiol modified hyaluronan, 10 mg) was dissolved in 1.0 ml degassed deionized water for about 20 minutes to prepare a 1% w/v solution. The Gelin-S component (thiol modified gelatin, 10 mg) was dissolved in 1 ml degassed deionized water to prepare a 1% w/v solution, and PEGDA (PEG diacrylate, 10 mg) was dissolved in 0.5 ml degassed deionized water to prepare a 2% w/v solution. HyStem (1 ml, 1% w/v) was mixed with Gelin-S (1 ml, 1% w/v) immediately before use. Pelleted cells were resuspended in recently prepared HyStem:Gelin-S (1:1 v/v) mix described above. Upon the addition of crosslinker PEGDA, the cell suspension, at a final concentration of 2.0×10^7 cells/ml, was aliquoted at 25 μl aliquot four to five times into each well of 6 well plates (Corning 3516) after partial gelation to form attached beads. Following complete gelation (20 minutes), chondrogenic medium was added to each well (i.e about 4 ml/each well of a 6 well plate). […]
The Gelin-S® component (10 mg of thiol-modified gelatin (BioTime)) is dissolved in 1.0 ml of degassed deionized water to prepare a 1% w/v solution, and polyethylene glycol diacrylate (10 mg of PEGDA) is dissolved in 0.5 ml of degassed deionized water to prepare a 2% w/v solution. […] At the desired time point, hydrogel constructs were either fixed and processed for immunohistochemical analysis or lysed using RLT (Qiagen, CA, USA) with 1% beta-mercaptoethanol for total RNA to analyze transcript expression using quantitative real-time PCR (qRT-PCR) and/or whole-genome microarray.
Total RNA was extracted directly from cells growing in 6-well plates or 10 cm tissue culture dishes using Qiagen RNeasy mini kits according to the manufacturer's instructions. RNA concentrations were measured using a Beckman DU530 or Nanodrop spectrophotometer and RNA quality was determined by denaturing agarose gel electrophoresis or using an Agilent 2100 bioanalyzer. […] The cRNA was hybridized to Illumina BeadChips, processed, and read using a BeadStation array reader according to the manufacturer's instructions (Illumina, San Diego, Calif., USA).

[1] = tested on: Bone marrow-derived mesenchymal stem cells (MSCs); test: Differentiation of bone marrow-derived MSCs in HyStem-C beads, FABP4 expression; assay type: cell-based; settings: 14 days, 50 ng/mL BMP2, or 10 ng/mL BMP4, or 100 ng/mL BMP7
Protocol: as §3

## C[C@H](Cc1ccc2c(c1)OC(C(=O)[O-])(C(=O)[O-])O2)NC[C@H](O)c1cccc(Cl)c1.[Na+].[Na+] [CL316243, reference compound]
NP110SM cells
  UCP1 expression: appeared to further increase

## O=C(Nc1ccncc1)c1cc([N+](=O)[O-])ccc1Cl [T0070907, reference compound]
Cell line E3; HyStem with 10 ng/ml BMP4 plus T0070907, compared to HyStem BMP4 alone, cell line not restated
  C19ORF80 expression: decreased C19ORF80 expression
Cell line E3; presence of the PPARγ antagonist T0070907, FIG. 7, cell line not restated
  THRSP expression: decreased to nearly undetectable levels

## CC1=C(/C=C/C(C)=C/C=C/C(C)=C/C(=O)O)C(C)(C)CCC1 [all-trans retinoic acid, reference compound]
Cell line E72
  expression of HOXB6, a marker of lateral plate mesenchyme: induced the expression of HOXB6

## CN(CCOc1ccc(CC2SC(=O)NC2=O)cc1)c1ccccn1 (stereo not drawn) [rosiglitazone, reference compound]
Cell line E3; E3, HyStem beads with 1.0 μM rosiglitazone, FIG. 3
  ADIPOQ transcript expression: > 5,000 RFUs
Cell line E3; E3, HyStem beads, 1.0 μM rosiglitazone in combination with 100 ng/ml BMP7, values greater than 160 RFUs above background
  UCP1 transcript expression: 161 RFUs

B1: BMP7: Bone Morphogenetic Protein 7, TGF-beta superfamily member (protein, UniProt P18075 293-431, looked up)
Bone morphogenetic protein 7: STGSKQRSQNRSKTPKNQEALRMANVAENSSSDQRQACKKHELYVSFRDLGWQDWIIAPEGYAAYYCEGECAFPLNSYMNATNHAIVQTLVHFINPETVPKPCCAPTQLNAISVLYFDDSSNVILKKYRNMVVRACGCH
Cell line E3; E3, HyStem beads with 10 ng/ml BMP4 or 100 ng/ml BMP7, FIG. 5
  PCK1 transcript expression: relatively high levels
Cell line E3; E3, HyStem supplemented with 100 ng/ml BMP7
  expression of C19ORF80: highest expression
[1]
  differentiation into adipocytes as evidenced by expression of FABP4: caused the differentiation of the cells into adipocytes
